Reference: US8232288B2, “Substituted benzimidazoles, benzothiazoles and benzoxazoles” (Gruenenthal GmbH, priority 2009, dated 2012)

Experiments:
[1] = molecular target: T1, human B1R receptor (hB1R) (Homo sapiens, UniProt P46663); assay: Functional investigation on the bradykinin receptor 1 (B1R), FLIPR Ca2+ assay, hB1R cells; assay type: cell-based
T1 construct: expressed in transfected cells; host or cells: CHO K1 cells
T1 sequence (P46663 1-353): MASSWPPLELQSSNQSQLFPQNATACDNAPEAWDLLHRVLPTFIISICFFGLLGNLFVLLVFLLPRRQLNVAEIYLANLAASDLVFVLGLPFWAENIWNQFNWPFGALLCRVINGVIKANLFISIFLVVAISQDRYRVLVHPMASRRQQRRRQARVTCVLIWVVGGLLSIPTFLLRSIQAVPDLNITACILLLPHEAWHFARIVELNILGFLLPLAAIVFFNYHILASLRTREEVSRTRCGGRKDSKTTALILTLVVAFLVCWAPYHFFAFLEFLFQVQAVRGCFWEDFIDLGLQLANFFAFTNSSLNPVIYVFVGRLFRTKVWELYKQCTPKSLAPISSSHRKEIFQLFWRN
In short: (§1)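 Stably transfected CHO K1 cells expressing human or rat B1R were loaded with Fluo-4, and Ca2+ fluorescence was read on a FLIPR. Compound (10 μM) was added first to measure activation. After 10–20 min, agonist at EC80 was added (Lys-Des-Arg9-bradykinin for hB1R, Des-Arg9-bradykinin for rB1R) to give % inhibition. IC50 values came from concentration series.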

[2] = molecular target: T2, B1R receptor of the rat (rB1R) (Rattus norvegicus, UniProt P97583); assay: Functional investigation on the bradykinin receptor 1 (B1R), FLIPR Ca2+ assay, rB1R cells; assay type: cell-based
T2 construct: expressed in transfected cells; host or cells: CHO K1 cells
T2 sequence (P97583 1-337): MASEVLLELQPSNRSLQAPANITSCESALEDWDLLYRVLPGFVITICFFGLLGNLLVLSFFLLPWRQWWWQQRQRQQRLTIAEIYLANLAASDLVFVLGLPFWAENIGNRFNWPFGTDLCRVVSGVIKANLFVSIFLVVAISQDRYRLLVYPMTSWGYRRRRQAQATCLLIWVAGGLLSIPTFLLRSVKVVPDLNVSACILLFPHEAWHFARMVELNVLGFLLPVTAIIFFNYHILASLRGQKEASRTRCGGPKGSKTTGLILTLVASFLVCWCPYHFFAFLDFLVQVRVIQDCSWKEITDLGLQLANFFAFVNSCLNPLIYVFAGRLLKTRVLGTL
In short: as §1

Row | Structure (SMILES) | inhibition at 10 µM [1] | inhibition at 10 µM [2]
1 | COc1cc(C)c(S(=O)(=O)N(C)C(C)c2nc3cccc(C(=O)N4CCC5(CCN(C(=O)CC(C)(C)C)CC5)CC4)c3[nH]2)c(C)c1 (centres unmarked) [I_CC-51, N-[1-[7-[9-(3,3-Dimethyl-butanoyl)-3,9-diazaspiro[5.5]undecane-3-carbonyl]-1H-benzoimidazol-2-yl]-ethyl]-4-methoxy-N,2,6-trimethyl-benzenesulfonic acid amide] | 78% | 88%
2 | Cc1cc(S(=O)(=O)N(C)Cc2nc3cccc(C(=O)N4CCC5(CC4)CCN(c4ccncc4)CC5)c3[nH]2)c(C)cc1Cl [I_CC-01, 4-chloro-N,2,5-trimethyl-N-[[7-(3-pyridin-4-yl-3,9-diazaspiro[5.5]undecane-9-carbonyl)-1H-benzoimidazol-2-yl]-methyl]-benzenesulfonic acid amide] | 96% | 92%
3 | COc1cc(C)c(S(=O)(=O)N(C)C(C)c2nc3cccc(C(=O)N4CCC5(CCN(Cc6[nH]cnc6C)CC5)CC4)c3[nH]2)c(C)c1 (centres unmarked) [I_CC-35, 4-Methoxy-N,2,6-trimethyl-N-[1-[7-[9-[(5-methyl-3H-imidazol-4-yl)-methyl]-3,9-diazaspiro[5.5]undecane-3-carbonyl]-1H-benzoimidazol-2-yl]-ethyl]-benzenesulfonic acid amide] | 68% | 104%
4 | COc1cc(C)c(S(=O)(=O)N(C)Cc2nc3c(C(=O)N4CCC5(CC4)CCN(c4ccncc4)CC5)cccc3n2C)c(C)c1 [I_20, 4-methoxy-N,2,6-trimethyl-N-[[1-methyl-4-(9-pyridin-4-yl-3,9-diazaspiro[5.5]undecane-3-carbonyl)-1H-benzoimidazol-2-yl]-methyl]-benzenesulfonic acid amide] | 98% | 30%
5 | COc1cc(C)c(S(=O)(=O)N(C)C(C)c2nc3cccc(C(=O)N4CCC5(CCN(Cc6ccc(OC)c(F)c6)CC5)CC4)c3[nH]2)c(C)c1 (centres unmarked) [I_CC-33, N-[1-[7-[9-[(3-Fluoro-4-methoxy-phenyl)-methyl]-3,9-diazaspiro[5.5]undecane-3-carbonyl]-1H-benzoimidazol-2-yl]-ethyl]-4-methoxy-N,2,6-trimethyl-benzenesulfonic acid amide] | 80% | 89%

Further lines, results first:

Row | inhibition at 10 µM [1] | inhibition at 10 µM [2] | Structure (SMILES)
6 | 97% | 99% | COc1cc(C)c(S(=O)(=O)N(C)c2nc3cccc(C(=O)N4CCC5(CC4)CCN(c4ccncc4)C5)c3n2C)c(C)c1 [I_CC-15, 4-methoxy-N,2,6-trimethyl-N-[1-methyl-7-(3-pyridin-4-yl-3,8-diazaspiro[4.5]decane-8-carbonyl)-1H-benzoimidazol-2-yl]-benzenesulfonic acid amide]
7 | 30% | 93% | CN(Cc1nc2cccc(C(=O)N3CCC4(CC3)CCN(c3ccncc3)CC4)c2[nH]1)C(=O)c1sccc1Cl [I_CC-05, 3-chloro-N-methyl-N-[[7-(3-pyridin-4-yl-3,9-diazaspiro[5.5]undecane-9-carbonyl)-1H-benzoimidazol-2-yl]-methyl]-thiophene-2-carboxylic acid amide]
8 | 99% | 55% | COc1cc(C)c(S(=O)(=O)N(C)Cc2nc3cccc(CC(=O)N4CCC5(CC4)CCN(c4ccncc4)CC5)c3[nH]2)c(C)c1 [I_21, 4-methoxy-N,2,6-trimethyl-N-[[7-[2-oxo-2-(9-pyridin-4-yl-3,9-diazaspiro[5.5]undecan-3-yl)-ethyl]-1H-benzoimidazol-2-yl]-methyl]-benzenesulfonic acid amide]
9 | 99% | 104% | COc1cc(C)c(S(=O)(=O)N(C)Cc2nc3cccc(C(=O)N4CCC5(CCN(c6ccncc6)CC5)C4)c3[nH]2)c(C)c1 [I_09, 4-methoxy-N,2,6-trimethyl-N-[[7-(8-pyridin-4-yl-3,8-diazaspiro[4.5]decane-3-carbonyl)-1H-benzoimidazol-2-yl]-methyl]-benzenesulfonic acid amide]
10 | 100% | 101% | Cc1cccc(Cl)c1S(=O)(=O)N(C)Cc1nc2ccc(C(=O)N3CCC4(CC3)CCN(c3ccncc3)CC4)cc2[nH]1 [I_23, 2-chloro-N,6-dimethyl-N-[[6-(9-pyridin-4-yl-3,9-diazaspiro[5.5]undecane-3-carbonyl)-1H-benzoimidazol-2-yl]-methyl]-benzenesulfonic acid amide]
